In US20220041616A1, “SPIRO COMPOUND AND MEDICAL USES THEREOF” (The National Institutes of Pharmaceutical R&D Co., Ltd., priority 2018, published 2022):

Legend:
ACC1 = target: T1, ACC1 (Homo sapiens, UniProt Q13085); experiment: In vitro inhibition of ACC1 activity, ADP-Glo Kinase Analysis; type: biochemical; details: 1 nM ACC1, 10 μM acetyl-CoA, 20 μM ATP
T1 construct: purchased BPS bioscience
Source text: ADP-Glo™ Kinase Analysis Kit (Promega) is used for the in vitro analysis of the inhibitory effect of the present compound on ACC1 or ACC2. ADP-Glo™ Kinase Analysis is a kinase detection analysis of luminescence method. ADP is produced in the process of catalyzing the substrate by ACC. ADP is converted into ATP which is then converted into light by Ultra-Glo™ luciferase. ADP is quantified by detecting the light signal, thus the enzyme activity can be measured by quantification of the ADP amount produced during the enzyme reaction. The analysis is carried out in two steps: in the first step, after the kinase reaction, a portion of ADP-Glo™ reagent equal in volume to the kinase reaction system is added to terminate the reaction and consume the remaining ATP; in the second step, a kinase detection reagent is added, which not only converts ADP into ATP, but also uses a coupled luciferase/luciferin reaction to detect newly synthesized ATP.
a. 10 mM compound stock solution (the present compound was dissolved in 100% DMSO to prepare the 10 mM stock solution) was diluted 50-fold to 200 μM with 100% DMSO, and then diluted in equal proportions (1:3) in a 96-well dilution plate (249944, Nunc). The gradient concentrations of the compound were 200 μM, 66.67 μM, 22.22 μM, 7.41 μM, 2.47 μM, 0.823 μM, 0.274 μM, 0.0914 μM, 0.0305 μM, 0.0102 μM, 0.00339 μM and 0.00113 μM.
b. 4.5 μL ACC1 working solution (BPS bioscience) (2.22 nM) was added to each well of a 384-well test plate (6007290, Perkin Elmer).
c. 0.5 μL of the serially diluted compound (prepared in step a) was added to each well of the 384-well test plate, which was centrifuged at 1000 rpm for 1 min and then incubated at room temperature for 15 min. The reaction system with compound GS-0976 at a final concentration of 0.1 μM was used as positive control; the reaction system with no compound but DMSO at a final concentration of 5% was used as negative control.
d. In the 384-well test plate (prepared in step c), 5 μL of the substrate working solution was added to each well to start the enzymatic reaction. The plate was centrifuged at 1000 rpm for 1 min and then incubated at room temperature for 30 min. The final concentration of each component in the ACC1 reaction system: 1 nM ACC1, 10 μM acetyl-CoA, 30 mM NaHCO3, and 20 μM ATP. The final concentration of each component in the ACC2 reaction system: 1.1 nM ACC2, 20 μM acetyl-CoA, 20 mM NaHCO3, and 15 μM ATP. Final concentrations of test compounds: 10 μM, 3.33 μM, 1.11 μM, 0.37 μM, 0.123 μM, 0.0411 μM, 0.0137 μM, 0.00457 μM, 0.00152 μM, 0.00051 μM, 0.00017 μM and 0.000056 μM. The final concentration of DMSO was 5% (v/v).
e. 10 μL of ADP-Glo reagent was added to each well of the 384-well test plate (prepared in step d), which was centrifuged at 1000 rpm for 1 min and then incubated at room temperature for 40 min.
f. 20 μL of kinase detection reagent was added to each well of the 384-well test plate (prepared in step e), which was centrifuged at 1000 rpm for 1 min and then incubated at room temperature for 40 min.
g. The chemiluminescence signal was detected with Perkin Elmer EnVision 2104.
ACC1 working solution and substrate working solution were both prepared with 1× kinase reaction buffer. The buffer was consisting of 50 mM HEPES buffer, 2 mM magnesium chloride, 0.01% BRIJ-35, 2 mM potassium citrate, 50 μg/mL BSA and 2 mM DTT.
The average value of the positive and negative control well and the standard deviation were calculated. The inhibition percentage was calculated according to the following formula: 100×[1−(compound−average value of positive control)/(average value of negative control-average value of positive control)].
IC50 of the compound was obtained using GraphPad Prism 6 software according to the following nonlinear fitting formula:
Y=Bottom+(Top−Bottom)/(1+10^((Log IC50−X)×Hillslope)), […]

patients = details: 10 patients, 20 mg orally once a day for 12 weeks; cited from earlier work
[1] = tested on: patients with non-alcoholic steatohepatitis (NASH); details: cited from earlier work

| IC50 (ACC1) [nM] | SMILES | also measured |
| --- | --- | --- |
| < 10 | COc1ccccc1[C@H](CN1C(=O)C2(CCN(C(=O)C(=O)O)CC2)C(=O)c2c1sc(-c1ncco1)c2C)OC1CCOCC1 [Compound 27, (R)-2-(7′-(2-(2-methoxyphenyl)-2-((tetrahydro-2H-pyran-4-yl)oxy)ethyl)-3′-methyl-2′-(oxazol-2-yl)-4′,6′-dioxo-6′,7′-dihydro-4′H-spiro[piperidine-4,5′-thieno[2,3-d]pyridin]-1-yl)-2-oxoacetic Acid] |  |
| < 10 | COC(=O)N1CCC2(CC1)C(=O)c1c(sc(-c3ncco3)c1C)N(C[C@H](OC1CCOCC1)c1ccccc1OC)C2=O [Compound 28, methyl (R)-7′-(2-(2-methoxyphenyl)-2-((tetrahydro-2H-pyran-4-yl)oxy)ethyl)-3′-methyl-2′-(oxazol-2-yl)-4′,6′-dioxo-6′,7′-dihydro-4′H-spiro[piperidine-4,5′-thieno[2,3-d]pyridine]-1-carboxylate] |  |
| < 10 | COc1ccccc1[C@H](CN1C(=O)C2(CCN(C(=O)NCC(=O)O)CC2)C(=O)c2c1sc(-c1ncco1)c2C)OC1CCOCC1 [Compound 29, (R)-(7′-(2-(2-methoxyphenyl)-2-((tetrahydro-2H-pyran-4-yl)oxy)ethyl)-3′-methyl-2′-(oxazol-2-yl)-4′,6′-dioxo-6′,7′-dihydro-4′H-spiro[piperidine-4,5′-thieno[2,3-d]pyridine]-1-carbonyl)glycine] |  |
| < 10 | COc1ccccc1[C@H](CN1C(=O)C2(CCN(S(=O)(=O)O)CC2)C(=O)c2c1sc(-c1ncco1)c2C)OC1CCOCC1 [Compound 30] |  |
| < 10 | COc1ccccc1[C@H](CN1C(=O)C2(CCN(C(N)=O)CC2)C(=O)c2c1sc(-c1ncco1)c2C)OC1CCOCC1 [Compound 31] |  |
| < 10 | CNC(=O)N1CCC2(CC1)C(=O)c1c(sc(-c3ncco3)c1C)N(C[C@H](OC1CCOCC1)c1ccccc1OC)C2=O [Compound 32] |  |
| < 10 | COc1ccccc1[C@H](CN1C(=O)C2(CCN(C(=O)NCCO)CC2)C(=O)c2c1sc(-c1ncco1)c2C)OC1CCOCC1 [Compound 33] |  |
|  | COc1ccccc1[C@H](Cn1c(=O)n(C(C)(C)C(=O)O)c(=O)c2c(C)c(-c3ncco3)sc21)OC1CCOCC1 [GS-0976] | liver fat content and non-invasive fibrosis markers (patients): statistically significant improvements; relative decrease of liver fat content ([1]; 12th week, MRI-PDFF): 43%; median cirrhosis, non-invasive marker of fibrosis, by magnetic resonance elastography (MRE) ([1]; 12th week, baseline 3.4 kPa, p=0.049): 3.1 kPa; liver fat content measured by MRI-PDFF ([1]; 12th week, baseline 15.7%, p=0.006): 9.0%; decrease of the amount of denovo fat synthesis from the baseline level, median ([1]; after 12 weeks): 29%; tolerability ([1]; most common adverse events nausea, abdominal pain and diarrhea): well tolerated |
